{"source": "paper PMC10375533", "about": "“Preference of Bacterial Rhamnosyltransferases for 6-Deoxysugars Reveals a Strategy To Deplete O-Antigens” (Journal of the American Chemical Society, 2023)", "biological_target": "T. thermophilus RfbF (Thermus thermophilus, UniProt Q72KB9)", "sequence (Q72KB9 entry or part of it)": "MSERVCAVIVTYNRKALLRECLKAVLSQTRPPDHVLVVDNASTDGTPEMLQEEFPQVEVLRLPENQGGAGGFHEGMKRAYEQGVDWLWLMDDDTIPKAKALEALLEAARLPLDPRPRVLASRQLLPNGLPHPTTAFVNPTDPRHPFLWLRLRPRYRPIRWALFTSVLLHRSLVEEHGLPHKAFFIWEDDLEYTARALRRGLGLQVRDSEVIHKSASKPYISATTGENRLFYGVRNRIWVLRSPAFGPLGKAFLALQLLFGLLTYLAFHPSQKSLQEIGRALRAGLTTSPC", "assay": "Isothermal titration calorimetry (ITC) binding measurements with RfbF", "conditions": "for ΔG / ΔH / ΔS / KD / binding to RfbF by ITC (in words) / Kd / n-value (stoichiometry): ITC; for fold increase in KD relative to dTDP-β-L-Rha: ITC with RfbF, compared to the native donor; for n-value (stoichiometry): ligands with sigmoidal binding curves, SD in parentheses, n = 3", "key": {"[1]": {"conditions": "25 °C, ligand titrated into 110 µM RfbF"}, "[2]": {"conditions": "25 °C, ligand titrated into 110 µM RfbF, one-site model, spread = SD, triplicate"}, "[3]": {"conditions": "ligand titrated into 110 µM RfbF"}, "[4]": {"conditions": "KD, 25 °C, ligand titrated into 110 µM RfbF, one-site model, spread = SD, triplicate"}}, "note": "Entries after “also recorded” stand apart in the source; their conditions may differ. Like-named read-outs stand apart in the source and are kept apart here.", "data": [{"smiles": "CC1OC(OP(=O)(O)OP(=O)(O)OCC2OC(n3cnc4c(=O)[nH]c(N)nc43)C(O)C2O)C(O)C(O)C1O", "note": "[GDP-β-L-Rha, GDP-β-L-rhamnose]", "values": [{"measurement": "ΔG", "setting": "[1]", "value": "N/B"}, {"measurement": "ΔH", "setting": "[1]", "value": "N/B"}, {"measurement": "ΔS", "setting": "[1]", "value": "N/B"}, {"measurement": "KD", "setting": "[2]", "value": "N/B"}, {"measurement": "binding to RfbF by ITC (in words)", "setting": "[3]", "value": "no measurable; also recorded: no binding"}]}, {"smiles": "CC1OC(OP(=O)(O)O)C(O)C(O)C1O", "note": "[L-Rha-1-phosphate, L-Rhamnose-1-phosphate, reference compound]", "values": [{"measurement": "Kd", "setting": "5-10 mM ligand titrated into 110 µM RfbF, read-out: KD (beyond measurable limit)", "value": "> 1000", "unit": "µM"}]}, {"smiles": "CC1OC(OP(=O)(O)OP(=O)(O)OCC2OC(n3ccc(=O)[nH]c3=O)C(O)C2O)C(O)C(O)C1O", "note": "[UDP-β-L-Rha, UDP-β-L-rhamnose]", "values": [{"measurement": "fold increase in KD relative to dTDP-β-L-Rha", "value": "~4.5", "unit": "fold"}, {"measurement": "ΔG", "setting": "[1]", "value": "8.55 (3.65) kcal/mol"}, {"measurement": "ΔH", "setting": "[1]", "value": "-6.72 (1.01) kcal/mol"}, {"measurement": "ΔS", "setting": "[1]", "value": "-51.2 (14.7) cal/mol·K"}, {"measurement": "n-value (stoichiometry)", "value": "1.30 (0.28)"}, {"measurement": "Kd", "setting": "[4]", "value": "36.1 ± 10.7", "unit": "µM"}]}, {"smiles": "Cc1cn([C@H]2C[C@H](O)[C@@H](COP(=O)(O)OP(=O)(O)O)O2)c(=O)[nH]c1=O", "note": "[dTDP, reference compound]", "values": [{"measurement": "binding to RfbF by ITC (in words)", "setting": "[3]", "value": "no binding profile is observed; also recorded: did not bind"}]}, {"smiles": "Cc1cn(C2CC(O)C(COP(=O)(O)OP(=O)(O)OC3OC(CO)C(O)C(O)C3O)O2)c(=O)[nH]c1=O", "note": "[dTDP-α-D-Glc, dTDP-a-D-glucose, reference compound]", "values": [{"measurement": "fold increase in KD relative to dTDP-β-L-Rha", "setting": "listed as dTDP-α-Glc", "value": "~75", "unit": "fold"}, {"measurement": "Kd", "setting": "[4]", "value": "637 ± 96", "unit": "µM"}]}, {"smiles": "Cc1cn(C2CC(O)C(COP(=O)(O)OP(=O)(O)OC3OC(C)C(O)C(O)C3O)O2)c(=O)[nH]c1=O", "note": "[dTDP-α-L-Rha, dTDP-a-L-rhamnose]", "values": [{"measurement": "ΔG", "setting": "[1]", "value": "N/B"}, {"measurement": "ΔH", "setting": "[1]", "value": "N/B"}, {"measurement": "ΔS", "setting": "[1]", "value": "N/B"}, {"measurement": "KD", "setting": "[2]", "value": "N/B"}, {"measurement": "binding to RfbF by ITC (in words)", "setting": "[3]", "value": "no detectable binding"}, {"measurement": "binding to RfbF by ITC (in words)", "setting": "ligand titrated into 110 µM RfbF, listed as dTDP-a-L-Rha", "value": "no measurable"}]}, {"smiles": "Cc1cn(C2CC(O)C(COP(=O)(O)OP(=O)(O)OC3OC(C)C(O)C(O)C3O)O2)c(=O)[nH]c1=O", "note": "[dTDP-β-L-6dTal, dTDP-6-deoxy-β-L-talose]", "values": [{"measurement": "ΔG", "setting": "[1]", "value": "0.415 (2.847) kcal/mol"}, {"measurement": "ΔH", "setting": "[1]", "value": "-8.17 (2.70) kcal/mol"}, {"measurement": "ΔS", "setting": "[1]", "value": "-28.8 (3.7) cal/mol·K"}, {"measurement": "binding to RfbF by ITC (in words)", "setting": "[3]", "value": "comparable affinity as the native substrate"}, {"measurement": "n-value (stoichiometry)", "value": "0.934 (0.028)"}, {"measurement": "Kd", "setting": "[4]", "value": 16.5, "unit": "µM"}]}, {"smiles": "Cc1cn(C2CC(O)C(COP(=O)(O)OP(=O)(O)OC3OC(C)C(O)C(O)C3O)O2)c(=O)[nH]c1=O", "note": "[dTDP-β-L-Fuc, dTDP-β-L-fucose]", "values": [{"measurement": "fold increase in KD relative to dTDP-β-L-Rha", "value": "~15", "unit": "fold"}, {"measurement": "Kd", "setting": "[4]", "value": "126 ± 1", "unit": "µM"}]}, {"smiles": "Cc1cn(C2CC(O)C(COP(=O)(O)OP(=O)(O)OC3OC(CO)C(O)C(O)C3O)O2)c(=O)[nH]c1=O", "note": "[dTDP-β-L-Man, dTDP-β-L-mannose]", "values": [{"measurement": "fold increase in KD relative to dTDP-β-L-Rha", "value": 60, "unit": "fold"}, {"measurement": "Kd", "setting": "[4]", "value": "496 ± 56", "unit": "µM"}]}]}
